The test system of experiment [1] is Human Microvascular Endothelial Cells (HMEC-1). Nature of the experiment: Human microvessel endothelial cell wound scrape (migration) assay. It is filed as cell-based. The method, then: (§1) • 1. […] Selective arterial smooth muscle dilators often have pro-angiogenic properties so QUB 698.8 was subjected to a range of appropriate bioassays to determine spectra of activity. • 4. In the human microvessel endothelial cell wound scrape assay, cells are grown on a glass slide to confluence, a standard-sized wound is made with a pipette tip and time taken to repair tear is measured. QUB 698.8 promoted wound closure 42% faster than non-treated controls at an optimum effective concentration of 10 nanomolar (Table 1—panel B and FIGS. 2a and b). • 5. Using an in vitro endothelial cell angiogenic tubule formation assay (Matrigel) QUB 698.8 induced 75% more tubules than time-matched controls at an optimum concentration of 1 nanomolar (Table 1—panel B and FIG. 3). • 6. […] (Table 1—panel B and FIG. 4). This may be indicative of a rapid role in cell cycle synchronization.

Experiment [2] deals with rat tail arterial smooth muscle preparation. Nature of the experiment: Rat tail artery smooth muscle bioassay (relaxation of phenylephrine-preconstricted artery). As to conditions: for % Maximum Response (relaxation): rat tail artery, pre-constricted, at optimum concentration. It counts as cell-based. Here is the method: (A) Arterial Smooth Muscle:
Male albino Wistar rats (200-350 g) were euthanized by asphyxiation followed by cervical dislocation.
The tail artery was prepared as previously described (Hirst et al (1994) Br. J. Radiol. 67, 795-799). Incubation buffer was 95% O2/5% CO2 oxygenated Krebs' solution (NaCl 118 mM, KCl 4.7 mM, NaHCO3 25 mM, NaH2 PO4 1.15 mM, CaCl2 2.5 mM, MgCl2 1.1 mM, glucose 5.6 mM). Constriction or dilation of the arterial smooth muscle preparation was detected by an increase or decrease in pressure generated by water column displacement using pressure transducers connected to a MacLab System (AD Instruments Pty Ltd. Australia). […] Viability was determined using a range of bolus phenylephrine (5 μM-10 μM) exposures and the endothelial layer of the artery was removed by bubbling with oxygen for 10 s. Absence of the endothelial layer was confirmed by the lack of relaxation in response to a 30 min perfusion of acetylcholine (50 μM) after preconstriction with phenylephrine (10 μM).
(§2) For intestinal smooth muscle preparations, one cm thick rings of ileum were carefully placed onto the pins of a MacLab force transducer, one pin acting as a stationary fixed point while the second pin was free, permitting application of tension to the smooth muscle. The muscle rings were gradually exposed to 0.1 g increments in resting tension until the spontaneous contractions originated from a resting tension of 0.5 g. The contracting muscle preparations were allowed to stabilise for 25 min before the application of peptides. After perfusion of arterial preparations with 10 μM phenylephrine to obtain constriction plateaux, relative relaxation was recorded following applications of peptides in the range of 1×10^−5-1×10^−10 M. The intestinal smooth muscle ring preparations were exposed to peptide doses as above and relative changes in tension were recorded.

Experiment [3] concerns HMEC-1. Nature of the experiment: Endothelial cell proliferation assay (MTT). It is filed as cell-based, human. The method, then: FIG. 4 illustrates the effect of the QUB 698.8 peptide on the proliferation of HMEC-1 over 72 hours compared to a non-treatment control.
as §1

Experiment [4] concerns HMEC-1. Nature of the experiment: In vitro endothelial cell angiogenic tubule formation assay (Matrigel). It is filed as cell-based, human. The method, then: FIG. 3 illustrates the effect of the QUB 698.8 peptide on the ability of HMEC-1 to form tubules on matrigel matrices.
as §1

Experiment [5] deals with rat ileal smooth muscle ring preparation. Nature of the experiment: Rat ileum smooth muscle ring bioassay (constriction of spontaneously contracting ileum). It is filed as cell-based. As to conditions: for % Maximum Response (constriction): spontaneously contracting rat ileum, at optimum concentration.
Source text: (B) Small Intestinal Smooth Muscle:
as §2

Setting [6] is: migration wound scrape, T = 7 dose response.

In the case of “DLPKIN [QUB 698.8, Asp-Leu-Pro-Lys-Ile-Asn]”, the “Time to 50% wound closure” value in experiment [1] (migration wound scrape, Other information) was “T = 3 hrs”. The 50% effective concentration (EC50) in experiment [1] (setting [6]) was determined as 0.339 nM; in experiment [2] (rat tail artery relaxation), 7 nM; in experiment [3] (proliferation), 0.0659 nM; in experiment [4] (tubule formation), 0.0526 nM; in experiment [5] (rat ileum constriction), 1440 nM. The “Optimum Concentration” value was 10^−8 M in experiment [1] (setting [6]); 10^−8 M in experiment [1] (wound scrape total time to closure); 10^−7 M in experiment [2] (rat tail artery relaxation); 10^−8 M in experiment [3] (proliferation); 10^−9 M in experiment [4] (tubule formation); 10^−5 M in experiment [5] (rat ileum constriction). For the same substance, the Peptide effect entry in experiment [1] (migration wound scrape, T = 7 dose response: promoter of wound closure) was “Potent”; in experiment [1] (wound scrape total time to closure: stimulator of initial endothelial migration), “Potent”; in experiment [3] (stimulator of endothelial cell proliferation), “Potent”; in experiment [4] (stimulator of endothelial tubule formation), “Potent”. Besides, in experiment [1] (wound closure), the Optimum effective concentration was found to be 10 nM. In addition, the “Time to complete wound closure” value in experiment [1] (wound scrape total time to closure, 10^−8 M) is 16 h. Further, in experiment [2], the “Response of rat tail arterial smooth muscle preparation” value is recorded as “dose-dependent relaxation”. Also, in experiment [2] (arterial vs ileal smooth muscle), the “Optimum concentration for maximal effect, arterial compared to ileal smooth muscle” value is “two orders of magnitude lower”. Besides, in experiment [2] (rat tail artery relaxation), the “Potency relative to bradykinin” value was “almost equipotent with bradykinin”. Further, the “Potency relative to maximakinin” value in experiment [2] (rat tail artery relaxation) is recorded as “more potent than maximakinin”. The “% Maximum Response (relaxation)” value in experiment [2] amounted to 25% relaxation. In addition, the “Endothelial cell number compared to non-treated controls after 48 h” value in experiment [3] (after 48 h) is recorded as “no significant differences”. For the same substance, the “Other information: proliferation after 24 hrs” value in experiment [3] (beyond 24 hrs) is on record as “No further”. The substance also displayed an Optimum concentration in experiment [4] (tubule formation) of 1 nM. Besides, the “Response of rat ileal smooth muscle ring preparation” value in experiment [5] is “dose-dependent constriction”. Moreover, the “Potency relative to bradykinin and maximakinin” value in experiment [5] (rat ileum constriction) is “less potent than both bradykinin and maximakinin”. Moreover, the “% Maximum Response (constriction)” value in experiment [5] came to 52% Constriction.
Take “DLPKINRKGPRPPGFSPFR [Mx, Asp-Leu-Pro-Lys-Ile-Asn-Arg-Lys-Gly-Pro-Arg-Pro-Pro-Gly-Phe-Ser-Pro-Phe-Arg, reference compound]”: in experiment [2] (rat tail artery relaxation), the response was half-maximal at 6.18 nM (EC50) and the “Optimum Concentration” value is listed as 10^−7 M. Besides, the “% Maximum Response (relaxation)” value in experiment [2] is recorded as 30% relaxation. Further, in experiment [5] (rat ileum constriction), the EC50 came out at 534 nM and the “Optimum Concentration” value is on record as 10^−6 M. For the same substance, in experiment [5], the “% Maximum Response (constriction)” value is given as 52% Constriction.

Usually EC50 stands for the concentration needed to bring the measured effect to its halfway point. Read a high EC50 as lower potency in that assay.

Source of the values: US8614187B2, “Peptides, compositions and uses thereof” (The Queen's University of Belfast, priority 2007, dated 2013).
